Results as given in ChEMBL document CHEMBL1201862, “PubChem BioAssay data set” (2004).
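Compound exposure: 48 hours, 5 concentrations, 96-well plates. GI50 = concentration required for 50% inhibition of growth.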 Activity calls are given as the source filed them. Cut-off read from the data, not from the text of the source: active = GI50 up to about 1.1 µM and inactive = higher.

Legend:
Assay in all cases: growth of human tumour cells (NCI), 48 h
[1] = system: PC-3
[2] = system: HOP-92
[3] = system: CCRF-CEM
[4] = system: BT-549
[5] = system: Hs-578T
[6] = system: SK-MEL-28
[7] = system: TK-10
[8] = system: M14
[9] = system: MCF7
[10] = system: OVCAR-5
[11] = system: NCI-H226
[12] = system: CAKI-1
[13] = system: HCT-15
[14] = system: NCI-H522
[15] = system: HL-60
[16] = system: MDA-MB-231
[17] = system: A549
[18] = system: ACHN
[19] = system: HCT-116
[20] = system: NCI-H23

SMILES	GI50 [1]	GI50 [2]	GI50 [3]	GI50 [4]	GI50 [5]	GI50 [6]	GI50 [7]	GI50 [8]	GI50 [9]	GI50 [10]	GI50 [11]	GI50 [12]	GI50 [13] [µM]	GI50 [14]	GI50 [15]	GI50 [16]	GI50 [17]	GI50 [18]	GI50 [19]	GI50 [20]
C/C(=N\N=C(/[SeH])N1CC2CCC(CC2)C1)c1ccccn1	0.0647 µM (active)	0.169 µM (active)	0.0111 µM (active)	0.182 µM (active)	0.198 µM (active)	0.0955 µM (active)	0.762 µM (active)	0.0255 µM (active)	< 0.01 µM (active)	0.179 µM (active)	0.43 µM (active)	0.293 µM (active)	0.0147	0.161 µM (active)	0.0166 µM (active)	0.115 µM (active)	0.0614 µM (active)	0.215 µM (active)	< 0.01 µM (active)	0.052 µM (active)
CC12CCC(C(Nc3ccccn3)C1=O)C2(C)C (stereo not given)	> 100 µM (inactive)	> 100 µM (inactive)	> 100 µM (inactive)	> 100 µM (inactive)	> 100 µM (inactive)	> 100 µM (inactive)	> 100 µM (inactive)	> 100 µM (inactive)	> 100 µM (inactive)	> 100 µM (inactive)	> 100 µM (inactive)	> 100 µM (inactive)	> 100	> 100 µM (inactive)	> 100 µM (inactive)	> 100 µM (inactive)	> 100 µM (inactive)	> 100 µM (inactive)	> 100 µM (inactive)	> 100 µM (inactive)
N=C(N)NS(=O)(=O)c1ccc(Nc2c3ccccc3nc3c(C(=O)NNCCO)cccc23)cc1	0.303 µM (active)	0.284 µM (active)	0.0541 µM (active)	0.121 µM (active)	0.249 µM (active)	0.252 µM (active)	> 1 µM (active)	0.21 µM (active)	0.109 µM (active)	0.499 µM (active)	0.19 µM (active)	0.198 µM (active)	0.33	0.127 µM (active)	0.227 µM (active)	0.261 µM (active)	0.473 µM (active)	0.565 µM (active)	0.156 µM (active)	0.133 µM (active)
Clc1ccc2c(NC3CCC(N4CCCCC4)CC3)ccnc2c1 (stereo not given)	32.5 µM (inactive)	12.6 µM (inactive)	6.03 µM (inactive)	18.5 µM (inactive)	27.2 µM (inactive)	18.6 µM (inactive)	18.4 µM (inactive)	5.16 µM (inactive)	28.8 µM (inactive)	30.7 µM (inactive)	25.1 µM (inactive)	22.2 µM (inactive)	27.4	20.9 µM (inactive)	14.5 µM (inactive)	16.9 µM (inactive)	31.8 µM (inactive)	32.6 µM (inactive)	13.4 µM (inactive)	52.5 µM (inactive)
Cc1cc(=O)c2ccccc2n1CCCCCCCCCCn1c(C)cc(=O)c2ccccc21	28.8 µM (inactive)	22.4 µM (inactive)	12.1 µM (inactive)	11 µM (inactive)	23.8 µM (inactive)	20.8 µM (inactive)	14.1 µM (inactive)	34.9 µM (inactive)	> 10 µM (inactive)	> 100 µM (inactive)	20.5 µM (inactive)	21.6 µM (inactive)	31.3	14.4 µM (inactive)	4.38 µM (inactive)	29.5 µM (inactive)	20 µM (inactive)	25.2 µM (inactive)	8.09 µM (inactive)	3.94 µM (inactive)
CC1CCCC(CC(=O)O)(CC(=O)O)C1 (stereo not given)	> 100 µM (inactive)	> 100 µM (inactive)	> 100 µM (inactive)	> 100 µM (inactive)	> 100 µM (inactive)	7.55 µM (inactive)	> 100 µM (inactive)	> 100 µM (inactive)	> 100 µM (inactive)	> 100 µM (inactive)	> 100 µM (inactive)	> 100 µM (inactive)	> 100	> 100 µM (inactive)	> 100 µM (inactive)	> 100 µM (inactive)	> 100 µM (inactive)	> 100 µM (inactive)	> 100 µM (inactive)	> 100 µM (inactive)
CN1CC[C@]2(c3cccc(O)c3)CC(=O)/C(=C/c3ccccc3)[C@@H]1C2.[O-][Cl+3]([O-])([O-])O	1.76 µM (inactive)	2.09 µM (inactive)	2.13 µM (inactive)	2.44 µM (inactive)	4.62 µM (inactive)	3.06 µM (inactive)	13.9 µM (inactive)	2.73 µM (inactive)	2.19 µM (inactive)	14.4 µM (inactive)	15 µM (inactive)	2.29 µM (inactive)	1.66	2.74 µM (inactive)	1.8 µM (inactive)	2.34 µM (inactive)	3.42 µM (inactive)	2.25 µM (inactive)	2.31 µM (inactive)	4.97 µM (inactive)
COCc1nc2c(OC)c(-c3nc4ccc(N5CCN(C)CC5)nc4[nH]3)cc(OC)c2[nH]1	33.3 µM (inactive)	> 100 µM (inactive)	21.2 µM (inactive)	> 100 µM (inactive)	> 100 µM (inactive)	28 µM (inactive)	67.3 µM (inactive)	21.3 µM (inactive)	40.5 µM (inactive)	40.4 µM (inactive)	> 100 µM (inactive)	> 100 µM (inactive)	38.1	37.7 µM (inactive)	30.7 µM (inactive)	45.8 µM (inactive)	46 µM (inactive)	62.2 µM (inactive)	30.1 µM (inactive)	62.5 µM (inactive)
Oc1ccc(Br)cc1/C=N/c1cccc(C(F)(F)F)c1	7.16 µM (inactive)	35.2 µM (inactive)	3.37 µM (inactive)	22.3 µM (inactive)	28 µM (inactive)	36.1 µM (inactive)	> 100 µM (inactive)	17.5 µM (inactive)	14.5 µM (inactive)	> 100 µM (inactive)	17.3 µM (inactive)	66.7 µM (inactive)	6.07	> 100 µM (inactive)	3.2 µM (inactive)	23.4 µM (inactive)	> 100 µM (inactive)	> 100 µM (inactive)	9.12 µM (inactive)	37.2 µM (inactive)
C=C1C(=O)O[C@H]2[C@H]3O[C@@H](C[C@@H]12)[C@@]1(C)CC[C@H](O1)C(C)=CCC[C@H]3C	1.49 µM (inactive)	1.55 µM (inactive)	0.324 µM (active)	0.581 µM (active)	2.65 µM (inactive)	1.82 µM (inactive)	1.58 µM (inactive)	1.65 µM (inactive)	1.43 µM (inactive)	3.09 µM (inactive)	2.46 µM (inactive)	1.28 µM (inactive)	1.49	1.77 µM (inactive)	0.278 µM (active)	1.62 µM (inactive)	2.25 µM (inactive)	1.55 µM (inactive)	1.45 µM (inactive)	1.53 µM (inactive)
Cc1ncn(-c2ccccc2O)c1C	> 100 µM (inactive)	> 100 µM (inactive)	> 100 µM (inactive)	> 100 µM (inactive)	> 100 µM (inactive)	> 100 µM (inactive)	> 100 µM (inactive)	> 100 µM (inactive)	> 100 µM (inactive)	> 100 µM (inactive)	> 100 µM (inactive)	> 100 µM (inactive)	> 100	> 100 µM (inactive)	> 100 µM (inactive)	> 100 µM (inactive)	> 100 µM (inactive)	> 100 µM (inactive)	> 100 µM (inactive)	> 100 µM (inactive)
Cc1nn(C(=O)c2ccc(Cl)cc2)c2c1C(/C=C/c1ccccc1)SC(=N)N2 (stereo not given)	> 10 µM (inactive)	> 10 µM (inactive)	> 10 µM (inactive)	> 10 µM (inactive)	> 10 µM (inactive)	> 10 µM (inactive)	> 10 µM (inactive)	> 10 µM (inactive)	> 10 µM (inactive)	> 10 µM (inactive)	> 10 µM (inactive)	> 10 µM (inactive)	> 10	> 10 µM (inactive)	> 10 µM (inactive)	> 10 µM (inactive)	> 10 µM (inactive)	> 10 µM (inactive)	> 10 µM (inactive)	> 10 µM (inactive)
COC(=O)/C(=N\NC(N)=O)C(C(=O)C(=O)Nc1ccccc1OC)c1nc2ccc([N+](=O)[O-])cc2nc1O (stereo not given)	> 100 µM (inactive)	> 100 µM (inactive)	> 100 µM (inactive)	> 100 µM (inactive)	82.2 µM (inactive)	> 100 µM (inactive)	> 100 µM (inactive)	> 100 µM (inactive)	> 100 µM (inactive)	> 100 µM (inactive)	> 100 µM (inactive)	> 100 µM (inactive)	> 100	> 100 µM (inactive)	> 100 µM (inactive)	> 100 µM (inactive)	> 100 µM (inactive)	> 100 µM (inactive)	> 100 µM (inactive)	> 100 µM (inactive)
